Reference: patent publication US20170210751A1, “PRMT5 INHIBITORS AND USES THEREOF” (Epizyme, Inc., priority 2014, published 2017)

What follows are molecules tested on Symmetric di-Methyl Arginine in Z-138 cells (assay: Z-138 Methylation Assay (In Cell Western for symmetric di-methyl arginine)). Details: Homo sapiens, 96 hours incubation, symmetric di-methyl arginine normalised to DNA content, read-out: ICW EC50.
Assay type: cell-based
Outline: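 Z-138 cells were treated with compound for 96 h at 37 °C, then fixed on poly-D-lysine plates. Symmetric di-methyl arginine was detected by In-Cell Western (800 nm) with DRAQ5 DNA normalisation (700 nm). Percent inhibition used DMSO and 3 μM reference-compound controls; IC50 curves came from triplicate wells.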
`O=C(COc1cccc2cccnc12)NCC(O)CN1CCc2ccsc2C1` (stereo not drawn) [Compound 1-5, N-(2-hydroxy-3-{4H,5H,6H,7H-thieno[2,3-c]pyridin-6-yl}propyl)-2-(quinolin-8-yloxy)acetamide] gave an EC50 of 0.101 to 1 µM. In the case of `CC(=O)N1CCC(Nc2cc(C(=O)NC[C@H](O)CN3CCc4ncn(C)c4C3)ncn2)CC1` [Compound 3-30, (S)-6-((1-acetylpiperidin-4-yl)amino)-N-(2-hydroxy-3-(3-methyl-6,7-dihydro-3H-imidazo[4,5-c]pyridin-5(4H)-yl)propyl)pyrimidine-4-carboxamide], the EC50 is reported as > 1 µM. `CC(=O)N1CC(Nc2cc(C(=O)NC[C@H](O)CN3CCc4c(cnn4C)C3)ncn2)C1` [Compound 3-29] was tested, and the EC50 was > 1 µM.
